{"source": "ChEMBL document CHEMBL1148003", "about": "(Bioorg Med Chem, 2007)", "key": {"[1]": {"assay": "Inhibition of almond beta-D-glucosidase", "parameters": "species or system Prunus dulcis"}, "[2]": {"assay": "Inhibition of jack bean alpha-D-mannosidase", "parameters": "species or system Canavalia ensiformis"}, "Cornu aspersum": {"test_system": "Cornu aspersum", "assay": "Inhibition of snail beta-D-mannosidase at 1 mM"}, "[3]": {"assay": "Inhibition of green coffee bean alpha-D-galactosidase at 1 mM"}, "Bos taurus": {"species_on_record": "Bos taurus", "assay": "Inhibition of bovine kidney alpha-L-fucosidase at 1 mM"}, "[4]": {"assay": "Inhibition of Escherichia coli beta-D-galactosidase"}, "[5]": {"assay": "Inhibition of bovine kidney alpha-L-fucosidase", "parameters": "species or system Bos taurus"}, "[6]": {"assay": "Inhibition of green coffee bean alpha-D-galactosidase"}, "[7]": {"assay": "Inhibition of Aspergillus wentii beta-D-mannosidase"}, "[8]": {"target": "T1, Glucoamylase, intracellular sporulation-specific (Saccharomyces cerevisiae S288c) (UniProt P08019)", "T1 sequence (whole entry)": "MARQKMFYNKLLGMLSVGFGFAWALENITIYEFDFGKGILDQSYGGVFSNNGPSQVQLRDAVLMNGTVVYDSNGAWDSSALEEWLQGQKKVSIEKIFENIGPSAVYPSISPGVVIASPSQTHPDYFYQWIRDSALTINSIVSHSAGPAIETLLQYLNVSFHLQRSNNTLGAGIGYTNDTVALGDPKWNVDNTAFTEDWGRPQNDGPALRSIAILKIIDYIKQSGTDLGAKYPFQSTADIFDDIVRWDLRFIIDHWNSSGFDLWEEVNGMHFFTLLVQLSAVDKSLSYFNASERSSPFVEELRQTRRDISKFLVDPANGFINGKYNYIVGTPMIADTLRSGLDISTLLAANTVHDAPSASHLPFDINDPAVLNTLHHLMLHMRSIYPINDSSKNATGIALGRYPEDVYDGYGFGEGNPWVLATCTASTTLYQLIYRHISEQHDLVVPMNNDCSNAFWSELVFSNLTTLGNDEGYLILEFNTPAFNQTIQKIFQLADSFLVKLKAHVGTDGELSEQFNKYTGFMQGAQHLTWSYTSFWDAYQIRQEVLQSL", "assay": "Inhibition of yeast alpha-D-glucosidase at 1 mM"}, "Escherichia coli": {"test_system": "Escherichia coli", "assay": "Inhibition of Escherichia coli beta-D-galactosidase at 1 mM"}, "[9]": {"assay": "Inhibition of snail beta-D-mannosidase", "parameters": "species or system Cornu aspersum"}}}
{"smiles": "O=S(=O)(O)C1NC[C@@H](O)[C@@H]1O", "note": "(stereo not given in full)", "values": [{"measurement": "IC50", "setting": "[1]", "result": 180, "unit": "µM"}, {"measurement": "Ki", "setting": "[2]", "result": 5, "unit": "µM"}]}
{"smiles": "O=S(=O)(O)C1NC[C@H](O)[C@H]1O", "note": "(stereo not given in full)", "values": [{"measurement": "IC50", "setting": "[1]", "result": 2000, "unit": "µM"}, {"measurement": "inhibition", "setting": "Cornu aspersum", "result": 28, "unit": "%"}, {"measurement": "inhibition", "setting": "[3]", "result": 20, "unit": "%"}, {"measurement": "inhibition", "setting": "Bos taurus", "result": 23, "unit": "%"}]}
{"smiles": "OC[C@H]1NC[C@@H](O)[C@@H]1O", "values": [{"measurement": "IC50", "setting": "[1]", "result": 500, "unit": "µM"}, {"measurement": "IC50", "setting": "[2]", "result": 200, "unit": "µM"}]}
{"smiles": "O[C@@H]1CN=C[C@@H]1O", "values": [{"measurement": "Ki", "setting": "[2]", "result": 20, "unit": "µM"}, {"measurement": "IC50", "setting": "[4]", "result": 1000, "unit": "µM"}, {"measurement": "Ki", "setting": "[5]", "result": 3, "unit": "µM"}]}
{"smiles": "O[C@@H]1C=NC[C@@H]1O", "values": [{"measurement": "Ki", "setting": "[1]", "result": 0.3, "unit": "µM"}, {"measurement": "Ki", "setting": "[2]", "result": 2, "unit": "µM"}, {"measurement": "Ki", "setting": "[6]", "result": 0.2, "unit": "µM"}, {"measurement": "Ki", "setting": "[4]", "result": 0.2, "unit": "µM"}, {"measurement": "IC50", "setting": "[5]", "result": 1000, "unit": "µM"}]}
{"smiles": "OC[C@H]1NC(O)[C@H](O)[C@@H](O)[C@@H]1O", "note": "(stereo not given in full) [NOJIRIMYCIN]", "values": [{"measurement": "Ki", "setting": "[1]", "result": 0.9, "unit": "µM"}, {"measurement": "Ki", "setting": "[2]", "result": 500, "unit": "µM"}, {"measurement": "Ki", "setting": "[7]", "result": 900, "unit": "µM"}]}
{"smiles": "O[C@@H]1CNC[C@H]1O", "values": [{"measurement": "inhibition", "setting": "[8]", "result": 43, "unit": "%"}, {"measurement": "inhibition", "setting": "[3]", "result": 27, "unit": "%"}, {"measurement": "inhibition", "setting": "Escherichia coli", "result": 20, "unit": "%"}]}
{"smiles": "OC[C@H]1N=C[C@@H](O)[C@@H]1O", "note": "[NECTRISINE]", "values": [{"measurement": "IC50", "setting": "[1]", "result": 2.2, "unit": "µM"}, {"measurement": "IC50", "setting": "[2]", "result": 3, "unit": "µM"}, {"measurement": "Ki", "setting": "[7]", "result": 42, "unit": "µM"}]}
{"smiles": "O[C@H]1[C@H](O)CN[C@H]1O", "values": [{"measurement": "IC50", "setting": "[1]", "result": 200, "unit": "µM"}, {"measurement": "Ki", "setting": "[2]", "result": 5, "unit": "µM"}, {"measurement": "IC50", "setting": "[9]", "result": 1000, "unit": "µM"}, {"measurement": "inhibition", "setting": "Cornu aspersum", "result": 50, "unit": "%"}, {"measurement": "inhibition", "setting": "[3]", "result": 40, "unit": "%"}]}
